Data reported in US4804751A, “Polycyclic hydrocarbon succinimides with psychotropic activity” (American Home Products Corporation, priority 1987, dated 1989).
Where a name gives a salt, the structure may show the parent alone. Read-outs that look alike come from different tables or passages of the source.

Legend:
[1] = target: T1, 5-HT-1A serotonin receptor (Rattus norvegicus, UniProt P19327); experiment: ex vivo inhibition of 5-HT-1A serotonin receptor binding (3H-8-OH-DPAT, hippocampal membranes)
T1 construct: Hippocampal tissue is dissected and homogenized on ice in 40 vols of buffer; from tissue; host or cells: rat hippocampus, washed membrane homogenate
T1 sequence (P19327 1-422): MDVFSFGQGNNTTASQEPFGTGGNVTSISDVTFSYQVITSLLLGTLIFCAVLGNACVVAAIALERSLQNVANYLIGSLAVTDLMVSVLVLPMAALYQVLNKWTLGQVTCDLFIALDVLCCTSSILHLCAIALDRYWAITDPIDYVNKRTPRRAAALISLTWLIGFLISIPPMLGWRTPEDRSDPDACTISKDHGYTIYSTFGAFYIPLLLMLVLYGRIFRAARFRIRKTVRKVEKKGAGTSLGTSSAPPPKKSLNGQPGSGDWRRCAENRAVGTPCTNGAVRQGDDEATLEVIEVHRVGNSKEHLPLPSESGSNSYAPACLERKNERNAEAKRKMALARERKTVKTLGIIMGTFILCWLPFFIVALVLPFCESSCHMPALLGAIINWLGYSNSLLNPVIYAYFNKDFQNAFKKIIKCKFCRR
Method: The assay is carried out as follows:
Several groups of rats (4-6 rats/group) are injected with test compound or the appropriate vehicle. Thirty minutes later, unless otherwise noted, rats are decapitated and their brains removed. Various brain regions are dissected and rapidly frozen and maintained at -70° C. until used.
The homogenate is then centrifuged at 20,000 rpm (RC5-B; 50,000 g) and the supernatant discarded. […] The pellet is then resuspended in 100 vols of buffer B (50 mM Tris HCl, pH=7.7 containing 0.1% ascorbate, 10 μM pargyline and 4 mM CaCl2) and sonicated. An aliquot is taken for protein determination by the Lowry method and the remainder stored frozen at -70° C. until used.
Specific binding obtained in vehicle-treated rats is compared to that obtained in animals receiving a single or various doses of test compound and expressed as percent of control.

[2] = system: conditioned avoidance responding in rats; experiment: conditioned avoidance (shelf-jump response) test; conditions: i.p.; Table 1
Method: A test designed to determine the potential antipsychotic activity of the compounds of the invention is the conditioned avoidance (shelf-jump response) test.
This test is carried out as follows:
Male CD rats (Charles River) maintained at approximately 400-450 gm body weight are used. […] A moveable wall, controlled by a motor, determines whether the rat has access to the shelf at any time during the experiment. The experimental chamber also contains a house light and sonalert. A steel grid floor in the main chamber is wired for presentation of electric shock. Each trial consists of a fifteen-second warning tone (conditioned stimulus), continuing for an additional fifteen seconds accompanied by electric shock (unconditioned stimulus). A response (jumping onto the exposed shelf of the upper chamber) occurring during the initial fifteen-second warning tone is considered an avoidance response, while a response occurring during shock delivery is considered an escape response. Trials are presented on a fixed interval schedule of one minute. The session consists of thirty-six trials. Animals are run twice weekly with control sessions always preceding a drug run, and with at least one day intervening. Compounds are administered i.p. or p.o. at appropriate pre-treatment times to a minimum of five rats at each dose level over a range of doses.
The following experimental parameters are recorded by computer: (1) the number of avoidance responses, (2) the number of escape responses, and (3) the number of trials in which no response occurred.
Response counts are summed over all subjects at a given dose. […] This number is expressed as a percentage of the total trials. Control performance is arbitrarily assigned a value of 100% for avoidance and the dose calculated to produce a 50% block in avoidance responding (AB50) is obtained from a dose-effect regression line fitted by the method of least squares. Potential anti-psychotic compounds suppress avoidance responding and increase escape responding.

[3] = target: limbic D-2 dopamine receptor (Rattus norvegicus, UniProt P61169); experiment: biochemical; conditions: read-out: Limbic D-2 Binding, inhibition
[4] = Table 3, rat hippocampal tissue, 3H-8-OH-DPAT, read-out: Inhibition Constant (Ki)

Chain of limbic D-2 dopamine receptor (P61169 whole entry): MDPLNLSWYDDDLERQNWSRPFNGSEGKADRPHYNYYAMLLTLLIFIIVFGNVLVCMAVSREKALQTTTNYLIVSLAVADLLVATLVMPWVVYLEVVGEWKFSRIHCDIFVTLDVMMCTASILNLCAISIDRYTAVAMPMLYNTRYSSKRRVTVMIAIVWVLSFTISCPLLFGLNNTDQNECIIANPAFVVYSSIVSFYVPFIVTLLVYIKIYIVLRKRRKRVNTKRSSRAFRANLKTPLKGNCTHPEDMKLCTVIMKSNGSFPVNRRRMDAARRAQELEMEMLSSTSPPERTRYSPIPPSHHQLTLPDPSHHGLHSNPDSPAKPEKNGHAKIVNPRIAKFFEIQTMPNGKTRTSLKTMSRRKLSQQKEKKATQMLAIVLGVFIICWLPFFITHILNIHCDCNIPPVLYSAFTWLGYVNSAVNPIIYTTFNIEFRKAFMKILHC

Row | SMILES | Ki [1] | Active at [2] | inhibition at 1 µM [3] | Ki [1, 4]
1 | O=C1N(CCCCN2CCN(c3cnccn3)CC2)C(=O)C23C4C=CC(C4)C12C1C=CC3C1 (centres unmarked) [Example 3, 1,4,5,8-Tetrahydro-10-[4-[4-(2-pyrazinyl)-1-piperazinyl]butyl]-4a,8a-(methaniminomethano)-1,4:5,8-dimethanonaphthalene-9,11-dione, dihydrochloride, sesquihydrate] | 0.012 µM | 40 mg/kg | 63% | 
2 | O=C1N(CCCCN2CCN(c3ncccn3)CC2)C(=O)C23C4CCC(C4)C12C1CCC3C1 (centres unmarked) [Example 4, Octahydro-10-[4-[4-(2-pyrimdinyl)-1-piperazinyl]butyl]-4a,8a-(methaniminomethano)-1,4:5,8-dimethanonaphthalene-9,11-dione, dihydrochloride] |  | 40 mg/kg |  | 0.007 µM
3 | O=C1N(CCCCN2CCN(c3ncccn3)CC2)C(=O)C23C4C=CC(C4)C12C1C=CC3C1 (centres unmarked) [Example 1, 1,4,5,8-Tetrahydro-10-[4-[4-(2-pyrimidinyl-1-piperazinyl]butyl]-4a,8a-(methaniminomethano)-1,4:5,8-dimethanonaphthalene-9,11-dione, dihydrochloride, hemihydrate] |  | 40 mg/kg | 53% | 0.014 µM
